According to US20210053957A1, “HERBICIDAL COMPOUNDS” (SYNGENTA PARTICIPATIONS AG, priority 2018, published 2021):

Tests used:
Assay in all cases: Post-emergence efficacy, glasshouse spray test
Assay type in all cases: in vivo
[1] = system: Ipomoea hederacea (IPOHE); details: Application Rate 500 g/Ha, evaluated after 13 days; for pest or weed control at 500 g/ha: Ipomoea hederacea, post-emergence, 312 h, read-out: Control of weed species after post-emergence application, IPOHE (100=total damage to plant; 0=no damage to plant)
Procedure: (§1) Seeds of a variety of test species were sown in standard soil in pots. After cultivation for 14 days (post-emergence) under controlled conditions in a glasshouse (at 24/16° C. day/night; 14 hours light; 65% humidity), the plants were sprayed with an aqueous spray solution derived from the dissolution of the technical active ingredient formula (I) in a small amount of acetone and a special solvent and emulsifier mixture referred to as IF50 (11.12% Emulsogen EL360 TM+44.44% N-methyl pyrrolidone+44.44% Dowanol DPM glycolether), to create a 50 g/l solution which was then diluted to required concentration using 0.25% or 1% Empicol ESC70 (Sodium lauryl ether sulphate)+1% ammonium sulphate as diluent. The test plants were then grown in a glasshouse under controlled conditions (at 24/16° C., day/night; 14 hours light; 65% humidity) and watered twice daily. After 13 days the test was evaluated (100=total damage to plant; 0=no damage to plant).
(§2) Ipomoea hederacea (IPOHE), Euphorbia heterophylla (EPHHL), Chenopodium album (CHEAL), Amaranthus palmeri (AMAPA), Lolium perenne (LOLPE), Digitaria sanguinalis (DIGSA), Eleusine indica (ELEIN), Echinochloa crus-galli (ECHCG), Setaia fabei (SETFA)

[2] = system: Lolium perenne (LOLPE); details: Application Rate 500 g/Ha, evaluated after 13 days; for pest or weed control at 500 g/ha: Lolium perenne, post-emergence, 312 h, read-out: Control of weed species after post-emergence application, LOLPE (100=total damage to plant; 0=no damage to plant)
Procedure: as §1, §2

[3] = system: Euphorbia heterophylla (EPHHL); details: Application Rate 500 g/Ha, evaluated after 13 days; for pest or weed control at 500 g/ha: Euphorbia heterophylla, post-emergence, 312 h, read-out: Control of weed species after post-emergence application, EPHHL (100=total damage to plant; 0=no damage to plant)
Procedure: as §1, §2

[4] = system: Amaranthus palmeri (AMAPA); details: Application Rate 500 g/Ha, evaluated after 13 days; for pest or weed control at 500 g/ha: Amaranthus palmeri, post-emergence, 312 h, read-out: Control of weed species after post-emergence application, AMAPA (100=total damage to plant; 0=no damage to plant)
Procedure: as §1, §2

[5] = system: Eleusine indica (ELEIN); details: Application Rate 500 g/Ha, evaluated after 13 days; for pest or weed control at 500 g/ha: Eleusine indica, post-emergence, 312 h, read-out: Control of weed species after post-emergence application, ELEIN (100=total damage to plant; 0=no damage to plant)
Procedure: as §1, §2

[6] = system: Digitaria sanguinalis (DIGSA); details: Application Rate 500 g/Ha, evaluated after 13 days; for pest or weed control at 500 g/ha: Digitaria sanguinalis, post-emergence, 312 h, read-out: Control of weed species after post-emergence application, DIGSA (100=total damage to plant; 0=no damage to plant)
Procedure: as §1, §2

[7] = system: Echinochloa crus-galli (ECHCG); details: Application Rate 500 g/Ha, evaluated after 13 days; for pest or weed control at 500 g/ha: Echinochloa crus-galli, post-emergence, 312 h, read-out: Control of weed species after post-emergence application, ECHCG (100=total damage to plant; 0=no damage to plant)
Procedure: as §1, §2

[8] = system: Chenopodium album (CHEAL); details: Application Rate 500 g/Ha, evaluated after 13 days; for pest or weed control at 500 g/ha: Chenopodium album, post-emergence, 312 h, read-out: Control of weed species after post-emergence application, CHEAL (100=total damage to plant; 0=no damage to plant)
Procedure: as §1, §2

[9] = system: Setaia fabei (SETFA); details: Application Rate 500 g/Ha, evaluated after 13 days; for pest or weed control at 500 g/ha: Setaria faberi, post-emergence, 312 h, read-out: Control of weed species after post-emergence application, SETFA (100=total damage to plant; 0=no damage to plant)
Procedure: as §1, §2

Structure (SMILES) | pest or weed control at 500 g/ha [1] [%] | pest or weed control at 500 g/ha [2] [%] | pest or weed control at 500 g/ha [3] [%] | pest or weed control at 500 g/ha [4] [%] | pest or weed control at 500 g/ha [5] [%] | pest or weed control at 500 g/ha [6] [%] | pest or weed control at 500 g/ha [7] [%] | pest or weed control at 500 g/ha [8] [%] | pest or weed control at 500 g/ha [9] [%] | Control of weed species after post-emergence application, IPOHE (100=total damage to plant; 0=no damage to plant) [1] | Control of weed species after post-emergence application, LOLPE (100=total damage to plant; 0=no damage to plant) [2] | Control of weed species after post-emergence application, EPHHL (100=total damage to plant; 0=no damage to plant) [3] | Control of weed species after post-emergence application, AMAPA (100=total damage to plant; 0=no damage to plant) [4] | Control of weed species after post-emergence application, ELEIN (100=total damage to plant; 0=no damage to plant) [5] | Control of weed species after post-emergence application, DIGSA (100=total damage to plant; 0=no damage to plant) [6] | Control of weed species after post-emergence application, ECHCG (100=total damage to plant; 0=no damage to plant) [7] | Control of weed species after post-emergence application, CHEAL (100=total damage to plant; 0=no damage to plant) [8] | Control of weed species after post-emergence application, SETFA (100=total damage to plant; 0=no damage to plant) [9]
O=C(O)CC[n+]1ccc(-c2nc(C(F)(F)F)co2)cn1 [Compound A56] | 30 | 50 | 90 | 100 | 80 | 70 | 90 | 80 | 80 | – | – | – | – | – | – | – | – | –
O=C(O)CC[n+]1ccc(-c2nccs2)cn1 [Compound A111] | 70 | 90 | 90 | 90 | 100 | 100 | 100 | 90 | 100 | – | – | – | – | – | – | – | – | –
O=S(=O)([O-])CC[n+]1ccc(-c2cccs2)cn1 [Compound A36] | 30 | 20 | 30 | 100 | 20 | 10 | 0 | 60 | 10 | – | – | – | – | – | – | – | – | –
CC(C)(C)COS(=O)(=O)CC[n+]1ccc(-c2cocn2)cn1 [Compound A21, 2,2-dimethylpropyl 2-(4-oxazol-4-ylpyridazin-1-ium-1-yl)ethanesulfonate; 2,2,2-trifluoroacetate] | 10 | 0 | 40 | 10 | 10 | 10 | 10 | 40 | 10 | – | – | – | – | – | – | – | – | –
O=S(=O)([O-])CC[n+]1ccc(-c2cnsc2)cn1 [Compound A60] | 10 | 30 | 50 | 90 | 70 | 50 | 40 | 90 | 50 | – | – | – | – | – | – | – | – | –
Cn1cnc(-c2cc[n+](CCCC(=O)O)nc2)n1 [Compound A119] | 30 | 30 | 80 | 100 | 90 | 90 | 80 | 50 | 100 | – | – | – | – | – | – | – | – | –
COC(=O)CC[n+]1ccc(-c2nccs2)cn1 [Compound A112] | 20 | 30 | 50 | 50 | 90 | 90 | 50 | 60 | 60 | – | – | – | – | – | – | – | – | –
CCOP(=O)(O)CC[n+]1ccc(-c2ncco2)cn1 [Compound A85] | 30 | 10 | 20 | 10 | 30 | 40 | 20 | 0 | 20 | – | – | – | – | – | – | – | – | –
COC(=O)c1cccc(C[n+]2ccc(-c3ncco3)cn2)c1 [Compound A92] | 10 | 0 | 20 | 10 | 10 | 20 | 0 | 10 | 0 | – | – | – | – | – | – | – | – | –
Cn1ncnc1-c1cc[n+](CCS(=O)(=O)[O-])nc1 [Compound A16] | 80 | 90 | 90 | 100 | 80 | 70 | 80 | 100 | 80 | – | – | – | – | – | – | – | – | –
CNC(=O)c1coc(-c2cc[n+](CCC(=O)O)nc2)n1 [Compound A127] | 60 | 20 | 70 | 100 | 70 | 90 | 80 | 100 | 70 | – | – | – | – | – | – | – | – | –
O=S(=O)([O-])OCC[n+]1ccc(-c2ncco2)cn1 [Compound A67] | 80 | 60 | 80 | 100 | 90 | 90 | 70 | 80 | 80 | – | – | – | – | – | – | – | – | –
COc1cc(-c2cc[n+](CCS(=O)(=O)[O-])nc2)sn1 [Compound A34] | 20 | 20 | 30 | 60 | 20 | 30 | 50 | 20 | 40 | – | – | – | – | – | – | – | – | –
Nc1nsc(-c2cc[n+](CCS(=O)(=O)[O-])nc2)n1 [Compound A141] | 100 | 30 | 100 | 100 | 10 | 10 | 30 | 100 | 50 | – | – | – | – | – | – | – | – | –
COP(=O)(O)CCC[n+]1ccc(-c2ncco2)cn1 [Compound A86] | 40 | 20 | 30 | 40 | 20 | 30 | 10 | 30 | 20 | – | – | – | – | – | – | – | – | –
CC(C)c1csc(-c2cc[n+](CCS(=O)(=O)O)nc2)n1 [Compound A23] | – | – | – | – | – | – | – | – | – | 30 | 40 | 70 | 50 | 60 | 50 | 30 | 10 | 40
O=S(=O)([O-])CC[n+]1ccc(-c2ccns2)cn1 [Compound A5] | 70 | 100 | 100 | 100 | 80 | 60 | 70 | 100 | 60 | – | – | – | – | – | – | – | – | –
